Experimental data from patent US10233201B2, “Class of HDAC inhibitors expands the renal progenitor cells population and improves the rate of recovery from acute kidney injury” (University of Pittsburgh—Of the Commonwealth System of …, priority 2012, dated 2019).
“And” between values parts separate entries of the source, which are not always exact repeats. Equal values may be shown once. “Also recorded” adds a separate entry of the source.

Experiments:
[1] = system: renal progenitor cells (lhx1a expression); assay: In situ hybridization for lhx1a expression in 10-somite embryos (renal progenitor cell expansion); assay type: in vivo; settings: for lhx1a expansion class, 200 nM: 200 nM from 2 hpf
Description: (§1) PTBA was synthesized as described below. Hydroxyurea and aphidicolin were obtained from Sigma-Aldrich.
(§2) In situ hybridization and immunocytochemistry: In situ hybridization was performed as previously described with some modifications. 142 Hybridization temperature was 65° C. Embryos were blocked in 2% blocking reagent (Roche) with 5% sheep serum in MAB (100 mM maleic acid and 150 mM NaCl [pH 7.5]). Whole-mount immunocytochemistry with 1:25 mouse anti-α6F antibody (Developmental Studies Hybridoma Bank) and 1:100 Cy3 secondary antibody (Jackson ImmunoResearch) was performed as described previously. 108 Embryos were embedded in JB-4 for sectioning per the manufacturer's instructions (Polysciences), sectioned at 5 μm, and mounted with Cytoseal 60 (Richard-Allan Scientific).
The remaining PTBA analogs were synthesized.
In situ hybridization for lhx1a was performed as described above. […] Compounds were classified as effective, partially-effective or ineffective based on comparison to the effects of PTBA at a given concentration.
Testing of the compounds is on-going, but for those tested, Table 3 provides first pass EC50s based upon colormetric in situ hybridizations for the Lhx1a mRNA expression levels. After the procedure is run, in situ hybridization is done for the lhx1 mRNA expression and the number of embryos that show an expanded kidney field is manually counted to establish the percent of embryos showing expansion. Then the EC50 is determined by plotting the percent expansion in Excel, graphing the results and using the trendline function to determine the 50 percent point. […] For UPHD-00186, the 4 values for EC50 are shown in Table 3 for the corresponding expression in zebrafish embryos employed an artificial intelligence-based image analysis method termed cognition network technology (CNT) for n=4.

zebrafish larvae = assay: Phenotypic scoring of edema and survival in zebrafish larvae at 72 hpf; assay type: in vivo; settings: for larval phenotype in phenotypic screen of analogs: 3 μM, 2 to 72 hpf; for phenotype in initial chemical screen: 10 μM, larvae at 72 hpf
Excerpt: as §1
Wild type: no visible edema or developmental delay.

[2] = system: pax2a, pax8 expression (kidney field); assay: In situ hybridization for renal progenitor markers pax2a, pax8 / kidney field; assay type: in vivo, zebrafish; settings: screen hits, data not shown
Description: as §1, §2

[3] = system: mouse models of unilateral ureteral obstruction (UUO); assay: Unilateral ureteral obstruction (UUO); assay type: in vivo; settings: IP days 0 to 6, kidneys harvested at day 7
Excerpt: The model of unilateral ureteral obstruction generates progressive renal fibrosis. Surgically created UUO can be experimentally manipulated with respect to timing, severity, and duration, while reversal of the obstruction permits the study of recovery.
FIG. 47 represents the results of the testing of compounds UPHD-00022, UPHD-00025 (PTBA), UPHD-00029, UPHD-00036, and UPHD-00186, for their efficacy in mouse models of unilateral ureteral obstruction (UUO) as follows: in the UUO models, one ureter was ligated for 7 days and compounds were delivered via IP for days 0 to 6. At day 7 kidneys were harvested for Sirius red staining. […] Therefore, in the models tested, the only compound proven to be effective in all models and with significant delayed onset of treatment is UPHD-186.

[4] = system: human HDACs (HeLa cell nuclear extract); assay: Fluorescence histone deacetylation assay with HeLa cell nuclear extract; assay type: biochemical
Description: To evaluate this in vitro, the deacetylation of a fluorescent peptide substrate was measured in the presence of human HDACs.
In vitro HDAC activity assays were performed using a fluorescence HDAC assay kit (Active Motif) according to the manufacturer's instructions. For maintaining compound solubility at 5 mM, the final DMSO concentration in all assay wells was increased to 5%. Fluorescence was detected using an M5 Plate Reader ([…])

histone H4 acetylation = assay: Histone H4 hyperacetylation Western blot in embryos; assay type: in vivo, zebrafish; settings: 24 hpf embryos treated 6 hours; 3 μM PTBA, 25 μM PBA, 200 nM TSA
Description: It was next determined whether the HDACi function of PTBA was quantifiable in vivo. 24 hpf embryos were treated with 3 μM PTBA, 25 μM PBA, or 200 nM TSA for 6 hours. Protein extracts were prepared and immunoblotted with an anti-hyperacetylated histone H4 antibody. […] Furthermore, increasing the compound concentration caused a corresponding increase in hyperacetylation (FIG. 21).
SDS-PAGE and Western blotting were performed as described previously with some modifications (Noel, E. S. et al. Organ-specific requirements for Hdac1 in liver and pancreas formation. Dev Biol 322, 237-250, (2008)). Proteins were separated on 18% SDS-PAGE gels. Membranes were incubated at 4° C. overnight with 1:1000 anti-hyperacetylated histone H4 antibody (06-946, Millipore) or 1:1000 anti-α-tubulin antibody (Sigma-Aldrich) in PBT containing 5% nonfat milk.

[5] = system: myod1 (somites), fli1a (vasculature), ntla (notochord); assay: In situ hybridization for mesodermal markers myod1, fli1a, ntla in 10-somite embryos; assay type: in vivo, zebrafish
Description: as §1, §2

[6] = cited from earlier work
[7] = 3 μM from 2 hpf, 10-somite embryos
[8] = lhx1a in situ hybridization, includes repeats* and recounts

Nc1ccccc1NC(=O)c1ccc(CNC(=O)OCc2cccnc2)cc1 [MS-275, reference compound]
lhx1a expansion class, 3 μM [1, 7]: − | larval phenotype in phenotypic screen of analogs (zebrafish larvae): showed no effect on zebrafish embryos

COc1ccc(/C=C(\C#N)C(N)=O)c(OC)c1 [NSC134664]
effect on size of the kidney field / renal markers (in situ hybridization) [2]: did not affect the size of the kidney field | phenotype in initial chemical screen (zebrafish larvae): generated pericardial edema

O=C(CCCSc1ccc(F)cc1)NO [UPHD-00029, 4-[(4-fluorophenyl)sulfanyl]-N-hydroxybutanamide]
lhx1a expansion class, 200 nM [1]: − | lhx1a expansion class, 400 nM ([1]; 400 nM from 2 hpf): +/− | lhx1a expansion class, 800 nM ([1]; 800 nM from 2 hpf): + | responders at 0.4 µM ([1]; Danio rerio, 400 nM, read-out: embryos with expanded lhx1a expression (% expansion)): 35% | responders at 0.8 µM ([1]; Danio rerio, 800 nM, read-out: embryos with expanded lhx1a expression (% expansion)): 60% | Expansion of Cells, 200 nM [1, 8]: 6.25% | Expansion of Cells, 800 nM [1, 8]: 60% and 33% | Expansion of Cells, 1.5 μM [1, 8]: 82.4% | fibrosis (Sirius red) and expression of fibrosis markers in UUO kidney [3]: reduce both fibrosis and expression of fibrosis markers

O=C(CCCCCCC(=O)Nc1ccccc1)NO [SAHA, reference compound]
lhx1a expansion class, 3 μM [1, 7]: − | larval phenotype in phenotypic screen of analogs (zebrafish larvae): showed no effect on zebrafish embryos

N=C(N)c1ccc(N=Nc2c(O)ccc3c2[nH]c2ccccc23)cc1 [NSC357777]
effect on size of the kidney field / renal markers (in situ hybridization) [2]: did not affect the size of the kidney field | phenotype in initial chemical screen (zebrafish larvae): generated pericardial edema

O=C(O)CCCS(=O)(=O)c1ccccc1 [PSOBA, 4-(phenylsulfonyl)butanoic acid, reference compound]
embryos with expanded lhx1a expression (% expansion) [1, 7]: no ability to expand renal progenitor cells | HDAC activity, % of the control value ([4]; 5 mM compound, 10 μg HeLa extract): 70%

CC(/C=C/C(=O)NO)=C\[C@@H](C)C(=O)c1ccc(N(C)C)cc1 [TSA, trichostatin A]
histone H4 hyperacetylation (histone H4 acetylation): hyperacetylation was observed | embryos with disrupted normal ntla expression ([5]; 200 nM): 86% | embryos with decreased myod1 expression ([5]; 3 μM PTBA (slightly decreased), 25 μM PBA, 200 nM TSA): 100% | embryos with decreased fli1a expression ([5]; 25 μM PBA, 200 nM TSA): 95% | embryos with expanded lhx1a expression (% expansion) ([1]; 100 nM): 97% | lhx1a expansion class, 100 nM ([1]; 100 nM from 2 hpf): + | embryos with expanded lhx1a expression (% expansion) ([1]; 200 nM): 100% | lhx1a expansion class, 200 nM [1]: + | lethality before the 10-somite stage ([1]; 400 nM): died before reaching 10 somites | lethality before the 10-somite stage ([1]; 800 nM): lethal | lethality before the 10-somite stage ([1]; 1.5 μM): lethal | lethality before the 10-somite stage ([1]; 3 μM): killed all treated embryos | concentration producing lhx1a expansion consistent with 3 μM PTBA ([1]; 10-somite embryos): 200 nM | treated 72 hpf larvae killed (zebrafish larvae; 300 nM): greater than 90% | larval phenotype in phenotypic screen of analogs (zebrafish larvae): generated edemic and/or lethal phenotypes | death (lethality) by 72 hpf (zebrafish larvae; 25 μM PBA, 200 nM TSA, n=90): 61% | larvae with edemic phenotype / pericardial edema at 72 hpf (zebrafish larvae; treated from 2 hpf, 3 μM PTBA, 25 μM PBA, 200 nM TSA): 100% | effect on HDAC activity ([4]; 1 μM TSA, all input levels of nuclear extract): completely blocked activity; also recorded: inhibit all HDAC activity

N=C(N)SCc1ccc(Cl)cc1Cl.O=[N+]([O-])c1c(O)c(Cl)cc(Cl)c1Cl [NSC35400]
effect on size of the kidney field / renal markers (in situ hybridization) [2]: did not affect the size of the kidney field | phenotype in initial chemical screen (zebrafish larvae): generated pericardial edema

O=C(CCCCCCC(=O)Nc1ccc([C@H]2O[C@@H](CSc3nc(-c4ccccc4)c(-c4ccccc4)o3)C[C@@H](c3ccc(CO)cc3)O2)cc1)NO [tubacin]
larval phenotype in phenotypic screen of analogs (zebrafish larvae): appeared wild-type

CC(C)(C)OC(=O)CCCSc1ccccc1 [tert-butyl 4-(phenylthio)butanoate]
larval phenotype in phenotypic screen of analogs (zebrafish larvae): did not cause a statistically-significant decrease in the number of wild-type larval phenotypes

O=C(O)CCCc1ccccc1 [Buphenyl]
half-life (t1/2) ([6]; following administration): ~1 h | bioavailability ([6]; taken orally): about 80%

Nc1ccccc1NC(=O)CCCSc1ccccc1 [UPHD-00036, N-(2-aminophenyl)-4-(phenylsulfanyl)butanamide]
fibrosis (Sirius red) and expression of fibrosis markers in UUO kidney [3]: reduce both fibrosis and expression of fibrosis markers

CCCC(CCC)C(=O)O [valproic acid]
larval phenotype in phenotypic screen of analogs (zebrafish larvae): generated edemic and/or lethal phenotypes
